Structures can show the parent of a compound that is named as a salt.
How the values were obtained:
[1] = target: T1, Glucose oxidase (GOD) (E.C.1.1.3.4.) (Aspergillus niger, UniProt P13006); assay: Cyclic voltammetry of GOD-graphite/paraffin pasta electrode containing the mediator; type: biochemical; details: Ag/AgCl ref.
Description: • 1) A paste containing GOD-immobilized graphite, paraffin and mediator is prepared. If the mediator has a big solubility in paraffin then 10 mg of mediator is used per ml of paraffin. If the mediator has a little solubility in paraffin then 50 mg of crystals are added per ml of paraffin in order to obtain a homogeneous mixture before graphite is added. The paste obtained is filled into sticks. • 2) The activity of the paste is determined in a cyclic voltametri equipment where the current is measured as a function of the potential (CV sweep). Five concentrations of glucose are measured, i.e., 0, 5, 10, 15 and 20 mM. Based upon the results obtained, the following is evaluated: • a) whether the mediator can be oxidized and reduced by the graphite electrode, • b) whether the mediator can be reduced of GOD, • c) the optimal potential for the electorde to be used, • d) whether a lineary response as a function of the concentration of glucose can be obtained using the concentration of mediator in question, • e) whether the concentration of the mediator can be optimized. • 3) The response as a function of time at the optimal potential is to be measured. The time interval within which the response represents a stable response for the concentration of glucose is to be evaluated. • 4) The stability of the mediator in the paste question is determined.
(§1) Glucose oxidase (GOD) (E.C.1.1.3.4.) was immobilized on graphite particles by the following procedure: 10 g of graphite was oxidized in air at 100°C for 24 hours. The surface oxidized graphite particles were activated with 500 mg of 1-cyclohexyl-3-(2-morpholinoethyl)carbodiimide metho-p-toluenesulfonate in 100 ml of 0.1 M acetate buffer (pH 4.76) for 2 hours, then washed with distilled water until an approximately neutral pH value and dried. The activated graphite was mixed with 30 ml of 0.01 phosphate buffer (pH 7.3) containing 80,000 IU GOD and 4% glutaraldehyde for 16 hours at 4°C, dried and sieved through a 48 mesh to obtain uniform particles.
(§2) 1 g of paraffin oil containing 5% Methylene green (4-nitro-3,7-bis(dimethylamino)phenothiazine) was mixed carefully with 2 g of GOD modified graphite to a uniform pasta.
(§3) The pasta was filled into a plastic rod in which it was possible to cut a thin cross-sectional slice to introduce a new well-defined electrode area. Before each measurement, the electrode surface was renewed. The working electrode area used was 3 mm^2.
In the study of the working electrode, an Ag auxiliary electrode and an Ag/AgCl reference electrode was used. In a cyclic voltammogram, a catalytic current from the reoxidation of the mediator was observed beginning at -50 mV and being stable between 50 and 400 mV. The current was proportional to the concentration of glucose used.
(§4) Data in the table are obtained using the same procedure as in Example 1.

[2] = target: T1, Glucose oxidase (GOD) (E.C.1.1.3.4.); assay: Chronoamperometry of GOD-graphite/paraffin pasta electrode containing the mediator (glucose measurement); type: biochemical; details: for Working potential: Ag/AgCl ref.; for SD% of 100 measurement / Signal to noice ration: at 7mM glucose
Description: as §1, §2, §3
Chronoamperometry was preformed at 100 mV using the integrated current from 30 to 60 seconds after applying the potential. A linearity up to 40 mM glucose was obtained. The current was 500 nA/(sec*mM). The signal was not affected by the oxygen concentration in the solution. Reference pasta without Methylene green was not affected by different glucose concentrations.
as §4

[3] = Redox potential of the mediator at GC electrode; type: physicochemical; details: Ag/AgCl ref.; in mV (unit assumed)
Text: as §4

Lactate oxidase = target: T2, Lactate oxidase (Aerococcus viridans, UniProt Q44467); assay: Lactate assay with enzyme-graphite pasta electrode and mediator; type: biochemical; details: lactate system; at 100 mV vs. Ag/AgCl reference electrode
T2 construct: purchased Sigma
T2 sequence (Q44467 1-374): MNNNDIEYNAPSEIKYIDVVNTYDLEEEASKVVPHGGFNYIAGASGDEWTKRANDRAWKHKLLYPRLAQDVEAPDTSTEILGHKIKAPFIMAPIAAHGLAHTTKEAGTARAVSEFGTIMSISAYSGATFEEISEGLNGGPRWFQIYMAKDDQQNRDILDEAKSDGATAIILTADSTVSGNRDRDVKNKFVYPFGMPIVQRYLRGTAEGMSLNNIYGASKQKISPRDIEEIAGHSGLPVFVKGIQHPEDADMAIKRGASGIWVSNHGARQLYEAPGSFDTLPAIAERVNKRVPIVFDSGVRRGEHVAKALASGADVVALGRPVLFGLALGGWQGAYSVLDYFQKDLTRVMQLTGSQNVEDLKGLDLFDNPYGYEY
Description: Lactate oxidase and alcohol oxidase were obtained from Sigma and the enzymes were used as in Example 1. The same mediators as in Example 4 were tested in the electrodes. The best response for the lactate system was obtained with Methylene green, which gave a current density at 4 µA/cm^2/mM at 100 mV vs. Ag/AgCl reference electrode. For the alcohol system ethanol was used as enzyme substrate. The current density was much lower than for the lactate system and none of the tested mediators worked optimally. Other mediators sucessfully tested with glucose oxidase are expected to give higher current densitites due to differences in hydrophobicity and hydrophillicity.

[4] = Stability test of pasta rods with selected mediators stored at different temperatures; type: physicochemical; design: unit not given here
Description: The stability of a paste with a certain mediator can be determined using the following method:
The mediator is dissolved or mixed with paraffin and, thereafter, the enzyme coupled to graphite is added. The mixture is homogenized giving a paste. This paste is filled into electrode holders of plast giving so-called sticks. These sticks are tested using 0 and 10 mM glucose standards in order to characterize the activity of these sticks in relation to glucose. Thereafter, the paste containing sticks are stored at a constant temperature, for example, 4, 20, 35 and 54°C. After a certain period of time, for example 1 month, the sticks are tested using the 0 and 10 mM glucose standards and the activities measured are compared with the activity measured at originally.
Data are obtained using the same basis procedure as in Example 1. Rods with selected mediators were stored at different temperature to accelerate processes which could give new analytical performance.

T1 sequence (P13006 17-605, species assumed): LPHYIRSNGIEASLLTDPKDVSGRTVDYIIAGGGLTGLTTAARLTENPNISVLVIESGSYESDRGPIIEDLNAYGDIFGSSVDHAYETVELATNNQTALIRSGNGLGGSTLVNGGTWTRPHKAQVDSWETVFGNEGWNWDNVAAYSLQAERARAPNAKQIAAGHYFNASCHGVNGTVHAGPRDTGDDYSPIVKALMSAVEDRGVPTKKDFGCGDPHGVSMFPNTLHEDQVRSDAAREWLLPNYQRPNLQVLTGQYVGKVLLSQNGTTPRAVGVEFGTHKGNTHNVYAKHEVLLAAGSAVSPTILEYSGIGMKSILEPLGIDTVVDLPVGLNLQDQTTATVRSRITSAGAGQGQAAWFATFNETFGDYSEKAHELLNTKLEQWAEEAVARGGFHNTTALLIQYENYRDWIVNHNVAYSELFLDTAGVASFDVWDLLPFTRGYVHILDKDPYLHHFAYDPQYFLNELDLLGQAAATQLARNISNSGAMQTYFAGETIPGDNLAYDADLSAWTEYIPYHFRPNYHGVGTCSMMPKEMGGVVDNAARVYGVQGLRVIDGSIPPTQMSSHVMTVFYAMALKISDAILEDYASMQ

| Structure (SMILES) | Catalytic interval beginning at [1] [mV] | Working potential [2] | SD% of 100 measurement [2] [%] | Signal to noice ration [2] | Linearity ([2]; glucose) [mM] | Redoxpotential at GCElectrode [3] | activity of rod in stability test ([4]; 4°C, listed as a, Time 0) | activity of rod in stability test ([4]; 4°C, listed as b, Time 0) | activity of rod in stability test ([4]; 20°C, listed as a, Time 0) | activity of rod in stability test ([4]; 20°C, listed as b, Time 0) | activity of rod in stability test ([4]; 35°C, listed as a, Time 0) | activity of rod in stability test ([4]; 35°C, listed as b, Time 0) | activity of rod in stability test ([4]; 54°C, listed as a, Time 0) | activity of rod in stability test ([4]; 54°C, listed as b, Time 0) | activity of rod in stability test ([4]; 4°C, listed as a, Time 72) | activity of rod in stability test ([4]; 4°C, listed as b, Time 72) | activity of rod in stability test ([4]; 20°C, listed as a, Time 72) | activity of rod in stability test ([4]; 20°C, listed as b, Time 72) | activity of rod in stability test ([4]; 35°C, listed as a, Time 72) | activity of rod in stability test ([4]; 35°C, listed as b, Time 72) | also measured |
| --- | --- | --- | --- | --- | --- | --- | --- | --- | --- | --- | --- | --- | --- | --- | --- | --- | --- | --- | --- | --- | --- |
| C[N+](C)=c1ccc2nc3c(ccc4ccccc43)oc-2c1 [MB, 7-dimethylamino-1,2-benzophenoxazinium salts] | -50 | 100 | 6.5 | 4.8 | 40 | -175 |  |  |  |  |  |  |  |  |  |  |  |  |  |  |  |
| CN(C)c1ccc2c(c1)Sc1c(ccc(N(C)C)c1[N+](=O)[O-])N2 [MG, 4-nitro-3,7-bis(dimethylamino)phenothiazine] | -50 | 100 | 7.5 | 22.5 | 40 | -149 | 13.7 | 10.0 | 14.9 | 12.5 | 12.1 | 13.3 | 15.8 | 12.8 |  |  |  |  |  |  | current density (Lactate oxidase): 4 µA/cm^2/mM; signal affected by the oxygen concentration in the solution ([2]; at 100 mV): not affected; current ([2]; at 100 mV, integrated current from 30 to 60 seconds after applying the potential): 500 nA/(sec*mM); Linearity in mM ([2]; glucose, listed as Methylene green): up to 40 mM; activity of rod in stability test ([4]; 4°C, listed as a, Time 75): 13.2; activity of rod in stability test ([4]; 4°C, listed as b, Time 75): 14.3; activity of rod in stability test ([4]; 20°C, listed as a, Time 75): 14.3; activity of rod in stability test ([4]; 20°C, listed as b, Time 75): 15.4; activity of rod in stability test ([4]; 35°C, listed as a, Time 75): 11.2; activity of rod in stability test ([4]; 35°C, listed as b, Time 75): 12.2; activity of rod in stability test ([4]; 54°C, listed as a, Time 75): 10.4; activity of rod in stability test ([4]; 54°C, listed as b, Time 75): 12.6 |
| c1cc(N2CCCCC2)ccc1N1CCCCC1 [BPP, 1,4-dipiperidinobenzene] | 0 | 150 | 3.5 | 4.7 | 20 | 141 | 12.3 | 11.1 | 10.0 | 10.5 | 9.1 | 10.6 | 11.1 | 10.3 |  |  |  |  |  |  | activity of rod in stability test ([4]; 4°C, listed as a, Time 78): 12.4; activity of rod in stability test ([4]; 4°C, listed as b, Time 78): 13.7; activity of rod in stability test ([4]; 20°C, listed as a, Time 78): 11.0; activity of rod in stability test ([4]; 20°C, listed as b, Time 78): 11.1; activity of rod in stability test ([4]; 35°C, listed as a, Time 78): 8.7; activity of rod in stability test ([4]; 35°C, listed as b, Time 78): 10.4; activity of rod in stability test ([4]; 54°C, listed as a, Time 78): 6.7; activity of rod in stability test ([4]; 54°C, listed as b, Time 78): 5.6 |
| c1cc(N2CCOCC2)ccc1N1CCOCC1 [BMP, 1,4-dimorpholinobenzene] | 50 | 200 | 6.5 | 5.6 | 20 | 246 | 20.2 | 21.3 | 18.5 | 20.5 | 20.0 | 16.7 | 18.4 | 20.5 | 21.2 | 19.3 | 21.4 | 23.3 | 18.0 | 20.3 | activity of rod in stability test ([4]; 54°C, listed as a, Time 72): 15.0; activity of rod in stability test ([4]; 54°C, listed as b, Time 72): 14.6 |
| CN(C)c1ccc(N2CCOCC2)cc1 [MDMP, 1-dimethylamino-4-morpholinobenzene] | -20 | 100 | 4.5 | 8.3 | 20 | 124 | 17.2 | 16.2 | 16.4 | 16.0 | 15.4 | 13.4 | 17.4 | 14.4 | 16.9 | 18.1 | 17.4 | 15.4 | 15.7 | 14.5 | activity of rod in stability test ([4]; 54°C, listed as a, Time 72): 6.9; activity of rod in stability test ([4]; 54°C, listed as b, Time 72): 8.5 |
| c1cc(N2CCOCC2)ccc1N1CCCCC1 [MPP, 1-morpholino-4-piperidinobenzene] | 20 | 100 | 4.0 | 10 | 20 | 166 | 11.7 | 9.2 | 10.0 | 7.2 | 7.0 | 9.0 | 12.5 | 11.3 |  |  |  |  |  |  | activity of rod in stability test ([4]; 4°C, listed as a, Time 70): 8.8; activity of rod in stability test ([4]; 4°C, listed as b, Time 70): 10.5; activity of rod in stability test ([4]; 20°C, listed as a, Time 70): 11.9; activity of rod in stability test ([4]; 20°C, listed as b, Time 70): 9.3; activity of rod in stability test ([4]; 35°C, listed as a, Time 70): 9.0; activity of rod in stability test ([4]; 35°C, listed as b, Time 70): 9.5; activity of rod in stability test ([4]; 54°C, listed as a, Time 70): 4.1; activity of rod in stability test ([4]; 54°C, listed as b, Time 70): 4.7 |

— patent EP0552223B1, “USE OF BENZENE DERIVATIVES AS CHARGE TRANSFER MEDIATORS” (NOVO NORDISK A/S, priority 1990, dated 1992)
